15 molecules from patent publication US6372752B1 (priority 2000, dated 2002) can be followed below.

Structures can show the parent of a compound that is named as a salt. Where two headings read alike, the source gives them in different places.

One series has as its target InhA (Mycobacterium tuberculosis, UniProt P9WGR1). Put plainly: InhA inhibition assay (NADH consumption, absorbance at 340). It is filed as biochemical. To be noted: for inhibition at 40 µM: 40 μM compound, read-out: Percentage Inhibition (@ 40 μM).
Series [1] relates to Bacillus Calmet-Guerin (BCG), Pasteur strain, of Mycobacterium bovis. In words: microbe, parasite or virus in culture. It counts as cell-based. To be noted: Mycobacterium tuberculosis variant bovis BCG.
The subject of the next series is h. Lung. In words: Cell Tox (h. Lung). To be noted: h. Lung cells.
The next series concerns m. Embryo. Put plainly: Cell Tox (m. Embryo). The settings on record: m. Embryo cells.
Another series deals with h. Kidney. Put plainly: Cell Tox (h. Kidney). To be noted: h. Kidney cells.
The mark [2] stands for this setting: read-out: IC50's for BCG growth.

InhA, sequence (P9WGR1 whole entry, looked up): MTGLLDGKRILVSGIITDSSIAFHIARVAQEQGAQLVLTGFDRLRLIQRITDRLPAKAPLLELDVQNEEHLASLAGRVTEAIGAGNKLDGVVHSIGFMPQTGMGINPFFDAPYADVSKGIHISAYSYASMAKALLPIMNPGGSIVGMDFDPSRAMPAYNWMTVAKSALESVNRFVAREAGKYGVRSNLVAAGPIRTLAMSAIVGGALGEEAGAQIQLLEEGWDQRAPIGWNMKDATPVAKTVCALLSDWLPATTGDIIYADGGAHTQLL

The inhibition is the relative decrease from the control value, in per cent. In the case of `CCCCCCCCCCCCCCCC(=O)SCCNC(=O)CCNC(=O)[C@H](O)C(C)(C)COP(=O)(O)OP(=O)(O)OC[C@H]1O[C@@H](n2cnc3c(N)ncnc32)[C@H](O)[C@@H]1OP(=O)(O)O` [palmitoyl-CoA, reference compound], the inhibition at 375 µM on InhA (at 375 uM, read-out: inhibition by internal standard) is roughly 40%.

In the case of `O=C(c1ccc2[nH]ccc2c1)N1CCN(C2c3ccccc3-c3cc([N+](=O)[O-])ccc32)CC1` (stereo not shown) [Compound 72], the IC50 on InhA (Table 9, read-out: InhA IC-50) was determined as 130 nM; in series [1] (read-out: BCG Growth IC-50) it was 2800 nM. In addition, in the series on h. Lung, the “Cell Tox (h. Lung)” value turned out to be 34 µM. For the same molecule, in the series with m. Embryo, the “Cell Tox (m. Embryo)” value turned out to be 23 µM. Further, the “Cell Tox (h. Kidney)” value with h. Kidney was 29 µM.

Turning to `O=C(c1ccc2[nH]ccc2c1)N1CCN(C2c3cc(Br)ccc3-c3ccc(Br)cc32)CC1` [Compound 73], the IC50 came out at 120 nM at InhA (Table 9, read-out: InhA IC-50) and 6200 nM in series [1] (read-out: BCG Growth IC-50).

In the case of `CC[C@@H](CO)NCCN[C@@H](CC)CO` [ethambutol, ethambutol dihydrochloride], the IC50 in series [1] (read-out: BCG Growth IC-50) and in series [1] (setting [2]) was 10000 nM in each case.

For the molecule `CO[C@H]1/C=C/O[C@@]2(C)Oc3c(C)c(O)c4c(O)c(c(/C=N/N5CCN(C)CC5)c(O)c4c3C2=O)NC(=O)/C(C)=C\C=C\[C@H](C)[C@H](O)[C@@H](C)[C@@H](O)[C@@H](C)[C@H](OC(C)=O)[C@@H]1C` [rifampicin], the IC50 in series [1] (read-out: BCG Growth IC-50) and in series [1] (setting [2]) was 10 nM in each case.

In the case of `O=C(Cc1ccccc1F)NCCc1ccc(Cl)cc1` [Compound 1, N-[2-(4-Chlorophenyl)-ethyl]-2-(2-fluoro-phenyl)acetamide], the inhibition at 40 µM at InhA (Table 2) amounted to 82%.

Regarding `O=C(c1ccc2[nH]ccc2c1)N1CCN(C2c3ccccc3-c3ccccc32)CC1` [Compound 70], the IC50 in series [1] (read-out: BCG Growth IC-50) was 8300 nM. The “Cell Tox (h. Lung)” value in the series with h. Lung fell in the range of 24 to 48 µM. Further, in the series with m. Embryo, the “Cell Tox (m. Embryo)” value is 46 to 52 µM. Besides, in the series with h. Kidney, the “Cell Tox (h. Kidney)” value was 35 to 44 µM.

For the molecule `NNC(=O)c1ccncc1` [isoniazid, isonicotinic acid hydrazide], the IC50 in series [1] (read-out: BCG Growth IC-50) and in series [1] (setting [2]) was 3000 nM each time.

`O=C(c1ccc2[nH]ccc2c1)N1CCN(c2cccc(Cl)c2)CC1` [Compound 58]: the IC50 on InhA came out at 1210 nM.

`Cc1ccc(Cl)cc1N1CCN(C(=O)c2ccc3[nH]ccc3c2)CC1` [Compound 57] yielded an IC50 on InhA of 1040 nM.

Consider `O=C(c1ccc2[nH]ccc2c1)N1CCN(C2c3ccccc3-c3ccc([N+](=O)[O-])cc32)CC1` (stereo not shown) [Compound 71], for which the IC50 at InhA (Table 9, read-out: InhA IC-50) came to 120 nM; in series [1] (read-out: BCG Growth IC-50) it was 8300 nM. For the same molecule, the “Cell Tox (h. Lung)” value with h. Lung was 37 µM. The “Cell Tox (m. Embryo)” value in the series with m. Embryo was 23 µM. In addition, the “Cell Tox (h. Kidney)” value with h. Kidney was determined as 28 µM.

`O=C(c1ccc2[nH]ccc2c1)N1CCN(c2cccc(C(F)(F)F)c2)CC1` [Compound 59]: the IC50 against InhA amounted to 1890 nM.

Consider `CCCC(=O)C1(c2ccccc2)CCN(C(=O)c2ccc3[nH]ccc3c2)CC1` [Compound 4, 1-[1-(1H-Indole-5-carbonyl)-4-phenyl-piperidin-4-yl]-butan-1-one], for which the IC50 is 230 nM at InhA and greater than 25000 nM in series [1] (read-out: BCG Growth IC-50). For the same molecule, the “Cell Tox (h. Lung)” value in the series on h. Lung lay in the range of 33 to 50 µM. Besides, in the series on m. Embryo, the “Cell Tox (m. Embryo)” value was in the range of 46 to 50 µM. Further, the “Cell Tox (h. Kidney)” value in the series with h. Kidney lay within 23 to 48 µM.

As to `O=C(c1ccc(Cl)cc1)C1CCN(C(=O)c2ccc3[nH]ccc3c2)CC1` [Compound 5, [4-(4-Chlorobenzoyl)-piperidin-1-yl]-(1H-indol-5-yl)-methanone], the inhibition at 40 µM at InhA (Table 6) came to 97%.

With `O=C(c1ccc2[nH]ccc2c1)N1CCN(c2ccc(Cl)cc2)CC1` [Compound 56], the IC50 against InhA turned out to be 4200 nM.
